Structures can show the parent of a compound that is named as a salt.
Tested on: HiBiT-HSD17β13 fusion protein (N-terminal HiBiT-tagged HSD17β13 isoform D) in Huh7 HiBiT-HSD17β13 OE cells
Experiment: Whole-cell Huh7-HSD17B13 HiBiT assay (degrader potency and maximal efficacy, luminescence readout)
Type: cell-based, human
Conditions: 24 hour incubation, geometric mean, * = geometric mean for all forms tested (parent and salt forms); for DC50: read-out: Huh7_HIBIT-HSD17β13_DC50 GMean DC50; for Huh7_HIBIT-HSD17β13_DC50 GMean Asymptote Maximum: max. concentration 1 μM
Protocol: Degrader potency and maximal efficacy of test compounds were determined using a whole-cell Huh7-HSD17B13 HiBiT assay, utilizing a luminescence readout. A HiBiT tag was fused to the N-terminus of HSD17β13, and therefore the HiBiT luminescence signal produced in the assay was proportional to the level of HiBiT-HSD17β13 fusion protein in a sample.
A Huh7 HiBiT-HSD17β13 OE cell line was generated using electroporation with an N-terminal HiBiT-tagged HSD17β13 isoform D overexpression plasmid, followed by geneticin selection to produce a stable pool. Clones were created with varying HiBiT signals to optimize HiBiT HSD17 β13 ratios. A clone with similar HSD17β13 expression levels as human primary hepatocytes was selected for the compound screen.
Greiner 384-well white opaque, flat bottom, tissue culture treated plates (Greiner #781080) were used for both HiBiT and CTG assays. The treated plates were spotted with 25 nL of a compound which had been serial diluted 1 in 3.162 in 100% DMSO for an 11-point concentration response curve, with duplicate points at each concentration. The maximum concentration of the compounds was 1 mM, which was later diluted with cell suspension for a maximum concentration of 1 μM). High percentage effect (HPE) wells and zero percentage effect (ZPE) wells located in columns 1 and 24 were spotted with 25 nL of DMSO (Sigma #D2650) using an ECHO Acoustic Liquid Handler (Labcyte Echo 550 Series). Each plate was performed in duplicate.
The Huh7 HiBiT-HSD17β13 OE cells were plated on top of a compound or a DMSO control at 3,000 viable cells/well in 25 μL growth media (DMEM (Gibco #10569), 10% FBS HI (Gibco #16140), 1× Pen/Strep (Gibco #15070), 1×MEM Non-Essential Amino Acids (Gibco #11140), and 300 μg/mL Geneticin (Gibco #10131) in columns 2-24 of the plates. Huh7 parental cells were plated using the same parameters in column 1 (HPE) in the same culture medium, excluding Geneticin selection. Cells were incubated overnight with the compounds for 24 hours (with lid) at 37° C. ([…]).
Each assay was conducted after a 24 hour incubation period. In the HiBiT assay plates, 25 μL of complete Nano-Glo HiBiT Lytic detection system (Promega #PRN3040), consisting of HiBiT Lytic Buffer with the addition of 1:100 LgBiT Protein and 1:50 Substrate, was added to each well. In CTG counter screen plates, 25 μL of Cell Titer-Glo Luminescent Reagent (Promega #G7573) was added to each well. Both plates were centrifuged for 2 minutes at 1000 rpm and incubated at room temperature, in the dark, for 10 minutes. Then Luminescence was read using an EnVision Plate Reader (Perkin Elmer PE2103).
The raw data from the Envision Plate Reader was expressed as relative luminescence units (RLUs) for each well of the assay plates. Using HPE and ZPE controls, the % effect was calculated for each sample well as follows: Percent effect=[(sample RLU−HPE RLU)\(ZPE RLU−HPE RLU)]*100. The percent effect was plotted versus the compound concentration and a 50% degradation ([…]) was determined using a four-parameter logistic dose response equation. The raw data was analyzed using ABase (IDBS).

DC50 [nM]	SMILES	Huh7_HIBIT-HSD17β13_DC50 GMean Asymptote Maximum [%]
0.62	Cn1c(=O)n(C2CCC(=O)NC2=O)c2ccc(CCCN3CC(n4cc(-c5ccc6cn([C@H]7CC[C@H](CNC(=O)c8cc(F)c(O)c(F)c8F)CC7)nc6c5)cn4)C3)cc21 (mixture of isomers) [Example 33, N-{[(1r,4r)-4-(6-{1-[1-(3-{1-[(3RS)-2,6-dioxopiperidin-3-yl]-3-methyl-2-oxo-2,3-dihydro-1H-benzimidazol-5-yl}propyl)azetidin-3-yl]-1H-pyrazol-4-yl}-2H-indazol-2-yl)cyclohexyl]methyl}-2,3,5-trifluoro-4-hydroxybenzamide]	86
0.23	Cn1c(=O)n(C2CCC(=O)NC2=O)c2ccc(CCCN3CCc4cc(-c5ccc6cn([C@H]7CC[C@H](CNC(=O)c8cc(F)c(O)c(F)c8F)CC7)nc6c5)ccc4C3)cc21 (mixture of isomers) [Example 34, N-{[(1r,4r)-4-{6-[2-(3-{1-[(3RS)-2,6-dioxopiperidin-3-yl]-3-methyl-2-oxo-2,3-dihydro-1H-benzimidazol-5-yl}propyl)-1,2,3,4-tetrahydroisoquinolin-6-yl]-2H-indazol-2-yl}cyclohexyl]methyl}-2,3,5-trifluoro-4-hydroxybenzamide, trifluoroacetate salt]	81
2.2	O=C1CCC(N2Cc3c(OCc4ccc(CN5CCC(CCCOc6ccc(-c7noc([C@]89CC[C@](CNC(=O)c%10cc(F)c(O)c(F)c%10F)(CC8)CC9)n7)nn6)CC5)cc4)cccc3C2=O)C(=O)N1 (mixture of isomers) [Example 36, N-({4-[3-(6-{3-[1-({4-[{{2-[(3RS)-2,6-dioxopiperidin-3-yl]-1-oxo-2,3-dihydro-1H-isoindol-4-yl}oxy)methyl]phenyl}methyl)piperi-din-4-yl]propoxy}pyridazin-3-yl)-1,2,4-oxadiazol-5-yl]bicyclo[2.2.2]octan-1-yl}methyl)-2,3,5-trifluoro-4-hydroxybenzamide, trifluoroacetate salt]	86
2	O=C1CCC(N2Cc3c(OCc4ccc(CN5CCC(CCCOc6ccc(-c7noc([C@]89CC[C@](CNC(=O)c%10cc(F)c(O)c(F)c%10)(CC8)CC9)n7)nn6)CC5)cc4)cccc3C2=O)C(=O)N1 (mixture of isomers) [Example 37, N-({4-[3-(6-{3-[1-({4-[({2-[(3RS)-2,6-dioxopiperidin-3-yl]-1-oxo-2,3-dihydro-1H-isoindol-4-yl}oxy)methyl]phenyl}methyl)piperi-din-4-yl]propoxy}pyridazin-3-yl)-1,2,4-oxadiazol-5-yl]bicyclo[2.2.2]octan-1-yl}methyl)-3,5-difluoro-4-hydroxybenzamide, trifluoroacetate salt]	85
2.6	Cn1c(=O)n(C2CCC(=O)NC2=O)c2ccc(CCCCNc3ncc(-c4ccc5cn([C@H]6CC[C@H](CNC(=O)c7cc(F)c(O)c(F)c7F)CC6)nc5c4)cn3)cc21 (mixture of isomers) [Example 38, N-{[(1r,4r)-4-(6-{2-[(4-{1-[(3RS)-2,6-dioxopiperidin-3-yl]-3-methyl-2-oxo-2,3-dihydro-1H-benzimidazol-5-yl}butyl)amino]pyrimidin-5-yl}-2H-indazol-2-yl)cyclohexyl]methyl}-2,3,5-trifluoro-4-hydroxybenzamide]	79
1.1	Cn1c(=O)n(C2CCC(=O)NC2=O)c2ccc(CCCCCC(=O)N3CCN(c4ccc5cn([C@H]6CC[C@H](CNC(=O)c7cc(F)c(O)c(F)c7F)CC6)nc5c4)CC3)cc21 (mixture of isomers) [Example 39, N-{[(1r,4r)-4-{6-[4-(6-{1-[(3RS)-2,6-dioxopiperidin-3-yl]-3-methyl-2-oxo-2,3-dihydro-1H-benzimidazol-5-yl}hexanoyl)piperazin-1-yl]-2H-indazol-2-yl}cyclohexyl]methyl}-2,3,5-trifluoro-4-hydroxybenzamide, trifluoroacetate salt]	86
0.86	Cn1c(=O)n(C2CCC(=O)NC2=O)c2ccc(CCC3CN(c4ncc(-c5ccc6cn([C@H]7CC[C@H](CNC(=O)c8cc(F)c(O)c(F)c8F)CC7)nc6c5)cn4)C3)cc21 (mixture of isomers) [Example 41, N-{[(1r,4r)-4-(6-{2-[3-(2-{1-[(3RS)-2,6-dioxopiperidin-3-yl]-3-methyl-2-oxo-2,3-dihydro-1H-benzimidazol-5-yl}ethyl)azetidin-1-yl]pyrimidin-5-yl}-2H-indazol-2-yl)cyclohexyl]methyl}-2,3,5-trifluoro-4-hydroxybenzamide]	81
0.29	Cn1c(=O)n(C2CCC(=O)NC2=O)c2ccc(CCN3CCN(c4ncc(-c5ccc6cn([C@H]7CC[C@H](CNC(=O)c8cc(F)c(O)c(F)c8F)CC7)nc6c5)cn4)CC3)cc21 (mixture of isomers) [Example 43, N-{[(1r,4r)-4-(6-{2-[4-(2-{1-[(3RS)-2,6-dioxopiperidin-3-yl]-3-methyl-2-oxo-2,3-dihydro-1H-benzimidazol-5-yl}ethyl)piperazin-1-yl]pyrimidin-5-yl}-2H-indazol-2-yl)cyclohexyl]methyl}-2,3,5-trifluoro-4-hydroxybenzamide, trifluoroacetate salt]	83
1.5	Cn1c(=O)n(C2CCC(=O)NC2=O)c2ccc(CCN3CCC(F)(Cc4ccc5cn([C@H]6CC[C@H](CNC(=O)c7cc(F)c(O)c(F)c7F)CC6)nc5c4)CC3)cc21 (mixture of isomers) [Example 44, N-{[(1r,4r)-4-(6-{[1-(2-{1-[(3RS)-2,6-dioxopiperidin-3-yl]-3-methyl-2-oxo-2,3-dihydro-1H-benzimidazol-5-yl}ethyl)-4-fluoropiperidin-4-yl]methyl}-2H-indazol-2-yl)cyclohexyl]methyl}-2,3,5-trifluoro-4-hydroxybenzamide, trifluoroacetate salt]	84
0.57	Cn1c(=O)n(C2CCC(=O)NC2=O)c2ccc(CC3CCN(c4ncc(-c5ccc6cn([C@H]7CC[C@H](CNC(=O)c8cc(F)c(O)c(F)c8F)CC7)nc6c5)cn4)CC3)cc21 (mixture of isomers) [Example 46, N-{[(1r,4r)-4-(6-{2-[4-({1-[(3RS)-2,6-dioxopiperidin-3-yl]-3-methyl-2-oxo-2,3-dihydro-1H-benzimidazol-5-yl}methyl)piperidin-1-yl]pyrimidin-5-yl}-2H-indazol-2-yl)cyclohexyl]methyl}-2,3,5-trifluoro-4-hydroxybenzamide, trifluoroacetate salt]	84
2.1	Cn1c(=O)n(C2CCC(=O)NC2=O)c2ccc(CN3CCN(c4ccc5cn([C@H]6CC[C@H](CNC(=O)c7cc(F)c(O)c(F)c7F)CC6)nc5c4)CC3)cc21 (mixture of isomers) [Example 51, N-{[(1r,4r)-4-{6-[4-({1-[(3RS)-2,6-dioxopiperidin-3-yl]-3-methyl-2-oxo-2,3-dihydro-1H-benzimidazol-5-yl}methyl)piperazin-1-yl]-1H-indazol-2-yl}cyclohexyl]methyl}-2,3,5-trifluoro-4-hydroxybenzamide, trifluoroacetate salt]	73
